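Grown in 96-well plates, cells were treated for 48 hours with each compound at five concentrations. Insufficient inhibition: endpoint recorded as highest concentration tested. GI50 marks 50% less growth. TGI denotes the concentration required for complete inhibition of growth.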
Key:
Experiment in all cases: NCI anticancer screen, dose series, 48 h
CCRF-CEM leukemia = system: CCRF-CEM leukemia
LOX IMVI melanoma = system: LOX IMVI melanoma
SF-268 CNS = system: SF-268 CNS
T-47D breast = system: T-47D breast
SNB-19 CNS = system: SNB-19 CNS
RPMI-8226 leukemia = system: RPMI-8226 leukemia
KM12 colon = system: KM12 colon
IGROV1 ovarian = system: IGROV1 ovarian
NCI/ADR-RES ovarian = system: NCI/ADR-RES ovarian
MALME-3M melanoma = system: MALME-3M melanoma

Row | SMILES | TGI (CCRF-CEM leukemia) | TGI (LOX IMVI melanoma) | TGI (SF-268 CNS) | TGI (T-47D breast) | TGI (SNB-19 CNS) | TGI (RPMI-8226 leukemia) | TGI (KM12 colon) | TGI (IGROV1 ovarian) | TGI (NCI/ADR-RES ovarian) | GI50 (CCRF-CEM leukemia) | GI50 (SF-268 CNS) | GI50 (T-47D breast) | GI50 (RPMI-8226 leukemia) | GI50 (KM12 colon) | GI50 (NCI/ADR-RES ovarian) | TGI (MALME-3M melanoma)
1 | O=C1CC(c2cccc(Br)c2)n2cccc21 (stereo unspecified) | > 100 µM | > 100 µM | > 100 µM | > 100 µM | > 100 µM | > 100 µM | > 100 µM | > 100 µM | > 100 µM |  |  |  |  |  |  | 
2 | CC1=NN(c2nc(N)nc(CC#N)n2)C(C)(C)C1 | > 100 µM | > 100 µM | > 100 µM | > 100 µM | > 100 µM | > 100 µM | > 100 µM | > 100 µM | > 100 µM |  |  |  |  |  |  | 
3 | Cc1ccc(N(CC(=O)Nc2ccc(S(=O)(=O)N3CCC(N4CCCC4)CC3)cc2)S(=O)(=O)c2ccc(Cl)cc2)cc1 | 6.35 µM |  | 3.29 µM | 3.91 µM |  | 5.06 µM | 3.9 µM |  | 4.05 µM | 1.9 µM | 1.61 µM | 1.74 µM | 2.08 µM | 1.96 µM | 1.93 µM | 
4 | S=C(c1c[nH]c2ccccc12)N1CCN(Cc2ccccc2)CC1 | > 100 µM | 29.2 µM | 35.6 µM |  | 35.5 µM | 51.9 µM | 33.8 µM | 26.2 µM | 36 µM |  |  |  |  |  |  | 33.7 µM
5 | CC1=Nc2sc3c(c2C2=NCCN12)CCCC3 |  | 36.8 µM | > 100 µM | 88 µM | > 100 µM | 46.9 µM | > 100 µM | 60.7 µM | 54.4 µM |  |  |  |  |  |  | 71.3 µM
6 | Cc1ccc2nc(-c3ccc(N4C(=O)C(Cl)C4c4ccc(Cl)cc4)cc3)sc2c1 (stereo unspecified) | 36.7 µM | 18.7 µM | 68 µM | > 100 µM | > 100 µM | 38.6 µM | > 100 µM |  | 39.3 µM |  |  |  |  |  |  | > 100 µM
7 | Cc1csc(/N=C\c2c(O)c3ccccc3oc2=O)n1 | > 100 µM | > 100 µM | > 100 µM |  | > 100 µM |  | > 100 µM | > 100 µM | > 100 µM |  |  |  |  |  |  | 70.3 µM
8 | CCCCCCCCCCCCCCCCOC[C@@H](COC(c1ccccc1)(c1ccccc1)c1ccccc1)O[P+](=S)OC (stereo partly specified) | 30.1 µM | 11.3 µM | 28.6 µM | 45 µM | 21.3 µM | 14.7 µM | 19.2 µM | 36 µM | 59.8 µM |  |  |  |  |  |  | 
9 | C=C1C(=O)O[C@@H]2C=C(C)C3=CC(=O)[C@](C)(C[C@H](OC(=O)/C(C)=C\C)[C@@H]12)O3 | 0.82 µM | 0.979 µM |  | 3.81 µM | 22.4 µM | 0.938 µM | 2.99 µM | 3.04 µM | 3.64 µM |  |  |  |  |  |  | 7.5 µM
10 | O=c1[nH]nc(Cc2ccccc2)n1CCO |  | > 100 µM | > 100 µM | > 100 µM | > 100 µM | > 100 µM | > 100 µM | > 100 µM | > 100 µM |  |  |  |  |  |  | > 100 µM
11 | CCOC(=O)/C(C#N)=C/c1ccnc2ccccc12 |  | 72.1 µM | > 100 µM | > 100 µM | > 100 µM | 92.5 µM | > 100 µM | > 100 µM | 52 µM |  |  |  |  |  |  | > 100 µM
